# BindingDB's records for doi:10.1016/j.bmc.2009.11.019 (Istituto Di Ricerche Chimiche E Biochimiche G. Ronzoni, 2010)
# Test: Inhibition of integrin alphaV receptor-mediated adhesion of human PC3 cells to vitronectin after 1 hr by toluidine blue staining
row,Compound,IC50 [µM]
1,"CC[C@@]1(O)C(=O)OCc2c1cc1n(c2=O)Cc2c-1nc1ccccc1c2/C=N/OCCNC(=O)COCCOCCOCC(=O)NCc1ccc(C[C@@H]2NC(=O)[C@@H](Cc3ccccc3)NC(=O)[C@H](CC(=O)O)NC(=O)CNC(=O)[C@H](CCCN=C(N)N)NC2=O)cc1 [2-[(2S,5R,8S,11S)-5-benzyl-11-(3-carbamimidamidopropyl)-8-{[4-({2-[2-(2-{[(2-{[(E)-{[(19S)-19-ethyl-19-hydroxy-14,18-dioxo-17-oxa-3,13-diazapentacyclo[11.8.0.0^{2,11}.0^{4,9}.0^{15,20}]henicosa-1(21),2,4,6,8,10,15(20)-heptaen-10-yl]methylidene}amino]oxy}ethyl)carbamoyl]methoxy}ethoxy)ethoxy]acetamido}methyl)phenyl]methyl}-3,6,9,12,15-pentaoxo-1,4,7,10,13-pentaazacyclopentadecan-2-yl]acetic acid]",8.3
2,"CC[C@@]1(O)C(=O)OCc2c1cc1n(c2=O)Cc2c-1nc1ccccc1c2CCC=NNC(=O)COCCOCCOCC(=O)NCc1ccc(C[C@@H]2NC(=O)[C@@H](Cc3ccccc3)NC(=O)[C@H](CC(=O)O)NC(=O)CNC(=O)[C@H](CCCN=C(N)N)NC2=O)cc1 [2-[(2S,5R,8S,11S)-5-benzyl-11-(3-carbamimidamidopropyl)-8-({4-[(2-{2-[2-({N'-[(1E)-3-[(19S)-19-ethyl-19-hydroxy-14,18-dioxo-17-oxa-3,13-diazapentacyclo[11.8.0.0^{2,11}.0^{4,9}.0^{15,20}]henicosa-1(21),2,4,6,8,10,15(20)-heptaen-10-yl]propylidene]hydrazinecarbonyl}methoxy)ethoxy]ethoxy}acetamido)methyl]phenyl}methyl)-3,6,9,12,15-pentaoxo-1,4,7,10,13-pentaazacyclopentadecan-2-yl]acetic acid]",11
3,"CC[C@@]1(O)C(=O)OCc2c1cc1n(c2=O)Cc2c-1nc1ccccc1c2/C=N\OCCNC(=O)CCC[C@@H]1NC(=O)[C@@H](Cc2ccccc2)NC(=O)[C@H](CC(=O)O)NC(=O)CNC(=O)[C@H](CCCN=C(N)N)NC1=O [2-[(2S,5R,8S,11S)-5-benzyl-11-(3-carbamimidamidopropyl)-8-{3-[(2-{[(Z)-{[(19S)-19-ethyl-19-hydroxy-14,18-dioxo-17-oxa-3,13-diazapentacyclo[11.8.0.0^{2,11}.0^{4,9}.0^{15,20}]henicosa-1(21),2,4,6,8,10,15(20)-heptaen-10-yl]methylidene}amino]oxy}ethyl)carbamoyl]propyl}-3,6,9,12,15-pentaoxo-1,4,7,10,13-pentaazacyclopentadecan-2-yl]acetic acid]",5.8
4,"NNC(=O)COCCOCCOCC(=O)NCc1ccc([C@@H]2NC(=O)[C@@H](Cc3ccccc3)NC(=O)[C@H](CC(=O)O)NC(=O)CNC(=O)[C@H](CCCN=C(N)N)NC2=O)cc1 [2-((2S,5R,8S,11S)-5-benzyl-11-(3-guanidinopropyl)-8-(4-(13-hydrazinyl-3,13-dioxo-5,8,11-trioxa-2-azatridecyl)phenyl)-3,6,9,12,15-pentaoxo-1,4,7,10,13-pentaazacyclopentadecan-2-yl)acetic acid]",15.6
5,"NC(N)=NCCC[C@@H]1NC(=O)C(c2ccc(CNC(=O)COCCOCCOCC(=O)O)cc2)NC(=O)[C@@H](Cc2ccccc2)NC(=O)[C@H](CC(=O)O)NC(=O)CNC1=O (stereo partly drawn) [1-(4-((5S,11S,14R)-14-benzyl-11-(carboxymethyl)-5-(3-guanidinopropyl)-3,6,9,12,15-pentaoxo-1,4,7,10,13-pentaazacyclopentadecan-2-yl)phenyl)-3-oxo-5,8,11-trioxa-2-azatridecan-13-oic acid]",18.8
6,"CC[C@@]1(O)C(=O)OCc2c1cc1n(c2=O)Cc2c-1nc1ccccc1c2/C=N/OCCNC(=O)CCC(=O)NCc1ccc(C[C@@H]2NC(=O)[C@@H](Cc3ccccc3)NC(=O)[C@H](CC(=O)O)NC(=O)CNC(=O)[C@H](CCCN=C(N)N)NC2=O)cc1 [2-[(2S,5R,8S,11S)-5-benzyl-11-(3-carbamimidamidopropyl)-8-{[4-({3-[(2-{[(E)-{[(19S)-19-ethyl-19-hydroxy-14,18-dioxo-17-oxa-3,13-diazapentacyclo[11.8.0.0^{2,11}.0^{4,9}.0^{15,20}]henicosa-1(21),2,4,6,8,10,15(20)-heptaen-10-yl]methylidene}amino]oxy}ethyl)carbamoyl]propanamido}methyl)phenyl]methyl}-3,6,9,12,15-pentaoxo-1,4,7,10,13-pentaazacyclopentadecan-2-yl]acetic acid]",> 100
7,"CC[C@@]1(O)C(=O)OCc2c1cc1n(c2=O)Cc2c-1nc1ccccc1c2C=NNC(=O)COCCOCCOCC(=O)NCc1ccc(C[C@@H]2NC(=O)[C@@H](Cc3ccccc3)NC(=O)[C@H](CC(=O)O)NC(=O)CNC(=O)[C@H](CCCN=C(N)N)NC2=O)cc1 [2-[(2S,5R,8S,11S)-5-benzyl-11-(3-carbamimidamidopropyl)-8-({4-[(2-{2-[2-({N'-[(1E)-[(19S)-19-ethyl-19-hydroxy-14,18-dioxo-17-oxa-3,13-diazapentacyclo[11.8.0.0^{2,11}.0^{4,9}.0^{15,20}]henicosa-1(21),2,4,6,8,10,15(20)-heptaen-10-yl]methylidene]hydrazinecarbonyl}methoxy)ethoxy]ethoxy}acetamido)methyl]phenyl}methyl)-3,6,9,12,15-pentaoxo-1,4,7,10,13-pentaazacyclopentadecan-2-yl]acetic acid]",4.8
